Several values for one entry are separate records, joined by “and”; a condition that tells them apart may be missing. Equal entries are not always repeated.
What was measured:
Assay type in all cases: in vivo
Settings in all cases: 20-22 d
[1] = test system: Sorghum vulgare (grain sorghum); test: Postemergence herbicidal activity, greenhouse, SORVU
Protocol: (§1) Seeds of the desired test plant species were planted in Sun Gro MetroMix® 360 planting mixture, which typically has a pH of 6.0 to 6.8 and an organic matter content of about 30 percent, in plastic pots with a surface area of 103.2 square centimeters (cm^2). When required to ensure good germination and healthy plants, a fungicide treatment and/or other chemical or physical treatment was applied. The plants were grown for 7-36 days (d) in a greenhouse with an approximate 14-hour (h) photoperiod which was maintained at about 23° C. during the day and 22° C. during the night. Nutrients and water were added on a regular basis and supplemental lighting was provided with overhead metal halide 1000-Watt lamps as necessary. The plants were employed for testing when they reached the second or third true leaf stage.
(§2) Weighed amounts of technical material were dissolved in a volume of 97:3 volume per volume (v/v) acetone/dimethyl sulfoxide (DMSO) to make stock solutions. […] The concentrated stock solutions were diluted with an aqueous mixture of 1.5% v/v of Agri-dex crop oil concentrate to provide the appropriate application rates. […]
(§3) The treated plants and control plants were placed in a greenhouse as described above and watered by sub-irrigation to prevent wash-off of the test compounds. After 20-22 d, the condition of the test plants as compared with that of the control plants was determined visually and scored on a scale of 0 to 100 percent where 0 corresponds to no injury and 100 corresponds to complete kill. The condition of the test plants was compared with that of the control plants as determined visually and scored on a scale of 0 to 100 percent, where 0 corresponds to no injury and 100 corresponds to complete kill. […]
(§4) Compound 1 was formulated as an EC and was combined with phytoene desaturase inhibitor herbicides, very long chain fatty acid inhibitor herbicides, or mixtures thereof, and applied to weeds, and the phytotoxicity of the herbicidal composition was measured. […]

Zea mays (maize/corn) = test: Postemergence crop injury, greenhouse, ZEAMX
Protocol: as §1, §2, §3, §4

[2] = test system: Echinochloa crus-galli (barnyardgrass); test: Postemergence herbicidal activity, greenhouse, ECHCG
Protocol: as §1, §2, §3, §4

[3] = test system: Polygonum convolvulus (wild buckwheat); test: Postemergence herbicidal activity, greenhouse, POLCO
Protocol: as §1, §2, §3, §4

Oryza sativa (rice) = test: Postemergence crop injury, greenhouse, ORYSA
Protocol: as §1, with “The plants were employed for testing when they reached the second or third true leaf stage.” left out
as §3

Kochia scoparia (kochia) = test: Postemergence herbicidal activity, greenhouse, KCHSC
Protocol: as §1, §2, §3, §4

[4] = test system: Veronica hederifolia (ivyleaf speedwell); test: Postemergence herbicidal activity, greenhouse, VERHE
Protocol: as §1, with “The plants were employed for testing when they reached the second or third true leaf stage.” left out
as §3

[5] = test system: Amaranthus retroflexus (pigweed); test: Postemergence herbicidal activity, greenhouse, AMARE
Protocol: as §1, §2, §3, §4

[6] = test system: Cyperus esculentus (nutsedge); test: Postemergence herbicidal activity, greenhouse, CYPES
Protocol: When required to ensure good germination and healthy plants, a fungicide treatment and/or other chemical or physical treatment was applied. The plants were grown for 7-36 days (d) in a greenhouse with an approximate 14-hour (h) photoperiod which was maintained at about 23° C. during the day and 22° C. during the night. Nutrients and water were added on a regular basis and supplemental lighting was provided with overhead metal halide 1000-Watt lamps as necessary. The plants were employed for testing when they reached the second or third true leaf stage. Weighed amounts of technical material were dissolved in a volume of 97:3 volume per volume (v/v) acetone/dimethyl sulfoxide (DMSO) to make stock solutions. […] The concentrated stock solutions were diluted with an aqueous mixture of 1.5% v/v of Agri-dex crop oil concentrate to provide the appropriate application rates. Compound requirements are based upon a 12 milliliter (mL) application volume at a rate of 187 liters per hectare (UJha). Spray solutions of the experimental compound mixtures were prepared by adding the stock solutions to the appropriate amount of dilution solution to form a 12 mL spray solution in two-way combinations. […] Control plants were sprayed in the same manner with the solvent blank. Application rates for component (a) are in g ae/ha, and application rates for component (b) are in g ai/ha. The treated plants and control plants were placed in a greenhouse as described above and watered by sub-irrigation to prevent wash-off of the test compounds. […] Colby's equation was used to determine the herbicidal effects expected from the mixtures. Compound 1 was formulated as an EC and was combined with phytoene desaturase inhibitor herbicides, very long chain fatty acid inhibitor herbicides, or mixtures thereof, and applied to weeds, and the phytotoxicity of the herbicidal composition was measured. […]

[7] = test system: Viola tricolor (wild pansy); test: Postemergence herbicidal activity, greenhouse, VIOTR
Protocol: as §1, §2, §3, §4

[8] = test system: Cirsium arvense (thistle); test: Postemergence herbicidal activity, greenhouse, CIRAR
Protocol: as §1
(§5) Weighed amounts of technical material were dissolved in a volume of 97:3 volume per volume (v/v) acetone/dimethyl sulfoxide (DMSO) to make stock solutions. […] The concentrated stock solutions were diluted with an aqueous mixture of 1.5% v/v of Agri-dex crop oil concentrate to provide the appropriate application rates. Compound requirements are based upon a 12 milliliter (mL) application volume at a rate of 187 liters per hectare (UJha). Spray solutions of the experimental compound mixtures were prepared by adding the stock solutions to the appropriate amount of dilution solution to form a 12 mL spray solution in two-way combinations. Formulated compounds were applied to the plant material with an overhead Mandel track sprayer equipped with 8002E nozzles calibrated to deliver 187 L/ha over an application area of 0.503 square meters (m^2) at a spray height of 18 inches ([…] (cm)) above average plant canopy. Control plants were sprayed in the same manner with the solvent blank. Application rates for component (a) are in g ae/ha, and application rates for component (b) are in g ai/ha.
as §3, §4

[9] = test system: Ipomoea hederacea (ivyleaf morningglory); test: Postemergence herbicidal activity, greenhouse, IPOHE
Protocol: as §1, §2, §3, §4

[10] = test system: Euphorbia heterophylla (poinsettia); test: Postemergence herbicidal activity, greenhouse, EPHHL
Protocol: as §1, §5
The treated plants and control plants were placed in a greenhouse as described above and watered by sub-irrigation to prevent wash-off of the test compounds. After 20-22 d, the condition of the test plants as compared with that of the control plants was determined visually and scored on a scale of 0 to 100 percent where 0 corresponds to no injury and 100 corresponds to complete kill. The condition of the test plants was compared with that of the control plants as determined visually and scored on a scale of 0 to 100 percent, where 0 corresponds to no injury and 100 corresponds to complete kill. Colby's equation was used to determine the herbicidal effects expected from the mixtures.
as §4

[11] = test system: Chenopodium album L. (common lambsquarters); test: Postemergence herbicidal activity, greenhouse, CHEAL
Protocol: as §1, §5, §3, §4

[12] = test system: Brassica napus (spring rape); test: Postemergence herbicidal activity, greenhouse, BRSNN
Protocol: as §1, §2, §3, §4

[13] = test system: Digitaria sanguinalis (large crabgrass); test: Postemergence herbicidal activity, greenhouse, DIGSA
Protocol: as §1, with “The plants were employed for testing when they reached the second or third true leaf stage.” left out
as §3

[14] = test system: Triticum aestivum (winter wheat); test: Postemergence crop injury, greenhouse, TRZAW
Protocol: as §1, §2, §3, §4

[15] = test system: Stellaria media (chickweed); test: Postemergence herbicidal activity, greenhouse, STEME
Protocol: as §1, with “The plants were employed for testing when they reached the second or third true leaf stage.” left out
as §3

[16] = test system: Abutilon theophrasti (velvetleaf); test: Postemergence herbicidal activity, greenhouse, ABUTH
Protocol: as §1, §2, §3, §4

In the case of `Nc1c(F)c(-c2ccc3cc[nH]c3c2F)nc(C(=O)O)c1Cl` [Compound 1], the “% Visual Injury” value ([1]; 5 g ae/ha) was 60%, the “% Visual Injury” value (Zea mays (maize/corn); 5 g ae/ha) was 10% and the “% Visual Injury” value ([2]; 5 g ae/ha) was 60%. For the same molecule, the “% Visual Injury” value ([3]; 5 g ae/ha) was 70%, the “% Visual Injury” value (Oryza sativa (rice); 5 g ae/ha) was 0% and the “% Visual Injury” value (Kochia scoparia (kochia); 5 g ae/ha) was 65%. The “% Visual Injury” value ([4]; 5 g ae/ha) was 40%, the “% Visual Injury” value ([5]; 5 g ae/ha) was 93% and 65% and the “% Visual Injury” value ([6]; 5 g ae/ha) was 10%. For the same molecule, the “% Visual Injury” value ([7]; 5 g ae/ha) was 10% and 5%, the “% Visual Injury” value ([8]; 10 g ae/ha) was 60% and the “% Visual Injury” value ([9]; 5 g ae/ha) was 20%. For the same molecule, the “% Visual Injury” value ([10]; 5 g ae/ha) was 97% and 75%, the “% Visual Injury” value ([10]; 10 g ae/ha) was 100% and the “% Visual Injury” value ([11]; 5 g ae/ha) was 90% and 80%. The “% Visual Injury” value ([11]; 10 g ae/ha) was 95%, the “% Visual Injury” value ([12]; 5 g ae/ha) was 50% and the “% Visual Injury” value ([13]; 5 g ae/ha) was 0%. For the same molecule, the “% Visual Injury” value ([14]; 5 g ae/ha) was 10%, the “% Visual Injury” value ([15]; 5 g ae/ha) was 65% and the “% Visual Injury” value ([16]; 10 g ae/ha) was 50%.
`O=C(Nc1ccc(F)cc1F)c1cccnc1Oc1cccc(C(F)(F)F)c1` [Diflufenican, N-(2,4-difluorophenyl)-2-[3-(trifluoromethyl)phenoxy]-3-pyridinecarboxamide] was tested, and the “% Visual Injury” value ([1]; diflufenican 50 g ai/ha) was 0%, the “% Visual Injury” value (Zea mays (maize/corn); diflufenican 50 g ai/ha) was 5% and the “% Visual Injury” value ([2]; diflufenican 50 g ai/ha) was 0%. The “% Visual Injury” value ([3]; diflufenican 50 g ai/ha) was 10%, the “% Visual Injury” value (Oryza sativa (rice); diflufenican 50 g ai/ha) was 0% and the “% Visual Injury” value (Kochia scoparia (kochia); diflufenican 50 g ai/ha) was 10%. For the same molecule, the “% Visual Injury” value ([6]; diflufenican 50 g ai/ha) was 0%, the “% Visual Injury” value ([8]; diflufenican 50 g ai/ha) was 20% and the “% Visual Injury” value ([9]; diflufenican 50 g ai/ha) was 0%. For the same molecule, the “% Visual Injury” value ([10]; diflufenican 50 g ai/ha) was 10%, the “% Visual Injury” value ([12]; diflufenican 50 g ai/ha) was 20% and the “% Visual Injury” value ([13]; diflufenican 50 g ai/ha) was 10%. The “% Visual Injury” value ([14]; diflufenican 50 g ai/ha) was 0% and the “% Visual Injury” value ([16]; diflufenican 50 g ai/ha) was 0%.
In the case of `CC(C)N(C(=O)COc1nnc(C(F)(F)F)s1)c1ccc(F)cc1` [Flufenacet, N-(4-fluorophenyl)-N-(1-methylethyl)-2-[[5-(trifluoromethyl)-1,3,4-thiadiazol-2-yl]oxy]acetamide], the “% Visual Injury” value ([8]; flufenacet 60 g ai/ha) was 0%, the “% Visual Injury” value ([10]; flufenacet 60 g ai/ha) was 0% and the “% Visual Injury” value ([11]; flufenacet 60 g ai/ha) was 10%. The “% Visual Injury” value ([16]; flufenacet 60 g ai/ha) was 0%.
For `O=C(Nc1ccc(F)cc1)c1cccc(Oc2cccc(C(F)(F)F)c2)n1` [Picolinafen, N-(4-fluorophenyl)-6-[3-(trifluoromethyl)phenoxy]-2-pyridinecarboxamide], the “% Visual Injury” value ([1]; picolinafen 12.5 g ai/ha) was 0%, the “% Visual Injury” value (Zea mays (maize/corn); picolinafen 12.5 g ai/ha) was 5% and the “% Visual Injury” value ([2]; picolinafen 12.5 g ai/ha) was 10%. For the same molecule, the “% Visual Injury” value ([3]; picolinafen 12.5 g ai/ha) was 0%, the “% Visual Injury” value ([5]; picolinafen 12.5 g ai/ha) was 20% and the “% Visual Injury” value ([6]; picolinafen 12.5 g ai/ha) was 0%. The “% Visual Injury” value ([7]; picolinafen 12.5 g ai/ha) was 10%, the “% Visual Injury” value ([8]; picolinafen 12.5 g ai/ha) was 10% and the “% Visual Injury” value ([9]; picolinafen 12.5 g ai/ha) was 5%. The “% Visual Injury” value ([12]; picolinafen 12.5 g ai/ha) was 25% and the “% Visual Injury” value ([14]; picolinafen 12.5 g ai/ha) was 0%.
For `Cn1nc(C(F)(F)F)c(CS(=O)(=O)C2=NOC(C)(C)C2)c1OC(F)F` [Pyroxasulfone, 3-[[[5-(difluoromethoxy)-1-methyl-3-(trifluoromethyl)-1H-pyrazol-4-yl]methyl]sulfonyl]-4,5-dihydro-5,5-dimethylisoxazole], the “% Visual Injury” value (Kochia scoparia (kochia); pyroxasulfone 100 g ai/ha) was 0%, the “% Visual Injury” value ([4]; pyroxasulfone 100 g ai/ha) was 0% and the “% Visual Injury” value ([5]; pyroxasulfone 100 g ai/ha) was 0%. The “% Visual Injury” value ([7]; pyroxasulfone 100 g ai/ha) was 0%, the “% Visual Injury” value ([10]; pyroxasulfone 100 g ai/ha) was 0% and the “% Visual Injury” value ([11]; pyroxasulfone 100 g ai/ha) was 10%. For the same molecule, the “% Visual Injury” value ([15]; pyroxasulfone 100 g ai/ha) was 40%.

From patent publication US20190069550A1, “HERBICIDAL COMPOSITIONS CONTAINING PYRIDINE CARBOXYLIC ACIDS OR DERIVATIVES THEREOF, WITH PDS AND VLCFA INHIBITORS, OR DERIVATIVES THEREOF” (Dow AgroSciences LLC, priority 2017, published 2019)
